This note sets out measurements from patent US20240199642A1, “METHOD FOR OBTAINING RIFAPENTINE WITH A NEW CRYSTALLINE FORM” (INTERQUIM S.A. DE C.V., priority 2021, published 2024).

Series [1] can be described thus: hygroscopicity under normal handling and storage conditions. It is filed as physicochemical.
Series [2] is described as follows: stability under normal storage conditions and normal formulation manipulations. It is filed as physicochemical.

Take `CO[C@H]1/C=C/O[C@@]2(C)Oc3c(C)c(O)c4c(O)c(c(/C=N/N5CCN(C6CCCC6)CC5)c(O)c4c3C2=O)NC(=O)/C(C)=C\C=C\[C@H](C)[C@H](O)[C@@H](C)[C@@H](O)[C@@H](C)[C@H](OC(C)=O)[C@@H]1C` [crystalline form of rifapentine, Rifapentine]: the hygroscopicity result is given as “non-hydroscopic” in series [1] (normal handling and storage conditions); “non-hygroscopic” in series [1] (normal storage conditions and normal formulation manipulations). The stability result in series [2] is reported as “stable”.
